In PubChem BioAssay AID1963958 (Molecular Pharmacology Branch, DTP, NCI, 2024):

System: MDA-MB-231 multicell spheroids, viability
Experiment: Anticancer human tumor MDA-MB-231 cell line growth inhibition [PI3K];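 also: spheroids exposed to agents for seven days before reading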;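 as to viability, T/C: percent of vehicle control luminescence with DMSO treated spheroids as 100%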
Conditions: for IC50: curve of first compound; for viability, T/C: stronger effect = lower value
Description: Combinatorial screen of targeted agents with the PI3K inhibitors inavolisib, alpelisib, duvelisib, and copanlisib in multi-cell type tumor spheroids
A high-throughput screen of multi-cell type tumor spheroids was designed to identify active combinations of targeted small molecules and PI3K pathway inhibitors. Complex spheroids include a stromal component modeled by human endothelial cells (HUVEC) and fibroblasts modeled by human mesenchymal stem cells (MSCs). The concentration ranges selected for each drug and investigational agent were based upon clinically achievable concentrations if the clinical Cmax of the agent was known.
Compounds. The drugs and investigational agents: inavolisib (NSC800729), alpelisib (NSC765974), duvelisib (NSC772469), copanlisib (NSC816437), ipatasertib (NSC767898), afuresertib (NSC778305), talazoparib (NSC767125), sapanisertib (NSC764658), selumetinib (NSC741078), tovorafenib (DAY101, NSC766906), vemurafenib (NSC761431), ravoxertinib (NSC781343), sotorasib (NSC818433), MRTX1133 (NSC 836407), abemaciclib (NSC 768073), palbociclib (NSC758247), venetoclax (NSC 766270), SY5609 (NSC837396), enzalutamide (NSC755605), and darolutamide (NSC825331), were obtained from the National Cancer Institute (NCI) Developmental Therapeutics Program Chemical Repository. The FDA-approved anticancer drug set is available from the NCI Developmental Therapeutics Program. […] The stock solutions were prepared in dimethyl sulfoxide (DMSO, Sigma-Aldrich, St. Louis, MO, cat. D2650) at 800-fold the tested concentration and stored at -70 degrees C prior to their use. All drugs and investigational agents were tested over a range starting from a high concentration at or near the clinical Cmax and decreasing in half-log increments. If the clinical Cmax for an agent had not been determined, the highest concentration tested was 10 microM.
Cell Culture. All cells were maintained in an incubator at 37 degrees C and 5% CO2 with 95% humidity. The PDC lines were cultured according to standard operating procedures established by the NCI PDMR (https://pdmr.cancer.gov/sops/default.htm). All PDCs were thawed and cultured in Matrigel-coated flasks prepared with a working solution of 1X Ham's F-12 nutrient mix, without supplementation (Invitrogen, Waltham, MA, cat. 11765054), 100 U/mL penicillin-streptomycin (Invitrogen, cat. 15140122), and 2.5% Matrigel (Corning Inc., Corning, NY, cat. 354248) for the first three passages. The 354836-022-R-J1-PDC, 475296-252-R-J1-PDC, and 997726-040-R-J2-PDC lines were cultured in 6A media, which includes advanced DMEM/F-12 (Thermo Fisher Scientific, cat. 12634028), 10 mM HEPES (Thermo Fisher Scientific, cat. 15630080), 1X GlutaMAX supplement (Thermo Fisher Scientific, cat. 35050061), 0.1 mg/mL primocin (InvivoGen, San Diego, CA, cat. ant-pm-2), 10% defined fetal bovine serum, heat inactivated (HyClone Laboratories Inc., Logan, UT, cat. SH30070.03HI), 50% L-WRN conditioned media (ATCC, cat. CRL-3276), 1.25 mM N-Acetyl-L-cysteine (Sigma-Aldrich, cat. A9165), 10 mM nicotinamide (Sigma-Aldrich, cat. N0636), 1X B-27 supplement (Thermo Fisher Scientific, cat. 17504044), 1X N-2 supplement (Thermo Fisher Scientific, cat. 17502048), and 10 microM Y-27632 dihydrochloride (Tocris Bioscience, Bristol, United Kingdom, cat. 1254). The 624824-186-R-J2-PDC line was cultured in 6C/Colon 1B media, which includes all 6A media components plus 50 ng/mL human EGF recombinant protein (Thermo Fisher Scientific, cat. PHG0311). […]

[1] = second compound 0.00316 µM, first compound 0.0316 µM
[2] = second compound 0.00316 µM, first compound 0.1 µM
[3] = second compound 0.01 µM, first compound 0.0316 µM
[4] = second compound 0.01 µM, first compound 0.1 µM
[5] = second compound 0.0316 µM, first compound 0.0316 µM
[6] = second compound 0.0316 µM, first compound 0.1 µM
[7] = second compound 0.1 µM, first compound 0.0316 µM
[8] = second compound 0.1 µM, first compound 0.1 µM
[9] = second compound 0.316 µM, first compound 0.0316 µM
[10] = second compound 0.316 µM, first compound 0.1 µM
[11] = second compound 1 µM, first compound 0.0316 µM
[12] = second compound 1 µM, first compound 0.1 µM
[13] = second compound 0.00316 µM, first compound 0.316 µM
[14] = second compound 0.00316 µM, first compound 1 µM
[15] = second compound 0.00316 µM, first compound 3.16 µM
[16] = second compound 0.00316 µM, first compound 10 µM
[17] = second compound 0.01 µM, first compound 0.316 µM
[18] = second compound 0.01 µM, first compound 1 µM
[19] = second compound 0.01 µM, first compound 3.16 µM
[20] = second compound 0.01 µM, first compound 10 µM
[21] = second compound 0.0316 µM, first compound 0.316 µM
[22] = second compound 0.0316 µM, first compound 1 µM
[23] = second compound 0.0316 µM, first compound 3.16 µM
[24] = second compound 0.0316 µM, first compound 10 µM
[25] = second compound 0.1 µM, first compound 0.316 µM
[26] = second compound 0.1 µM, first compound 1 µM
[27] = second compound 0.1 µM, first compound 3.16 µM
[28] = second compound 0.1 µM, first compound 10 µM
[29] = second compound 0.316 µM, first compound 0.316 µM
[30] = second compound 0.316 µM, first compound 1 µM
[31] = second compound 0.316 µM, first compound 3.16 µM
[32] = second compound 0.316 µM, first compound 10 µM
[33] = second compound 1 µM, first compound 0.316 µM
[34] = second compound 1 µM, first compound 1 µM
[35] = second compound 1 µM, first compound 3.16 µM
[36] = second compound 1 µM, first compound 10 µM

CC(=O)c1c(C)c2cnc(Nc3ccc(N4CCNCC4)cn3)nc2n(C2CCCC2)c1=O + CC(Nc1ccc2c(c1)OCCn1cc(N3C(=O)OCC3C(F)F)nc1-2)C(N)=O
IC50 (second compound 0.00316 µM): 74.4 nM | IC50 (second compound 0.01 µM): 60.6 nM | IC50 (second compound 0.0316 µM): 34.4 nM | IC50 (second compound 0.1 µM): 15.4 nM | IC50 (second compound 0.316 µM): 10.1 nM | IC50 (second compound 1 µM): 4.52 nM | viability, T/C (second compound 0.00316 µM, first compound 0.000316 µM): 108% | viability, T/C (second compound 0.00316 µM, first compound 0.001 µM): 91.5% | viability, T/C (second compound 0.00316 µM, first compound 0.00316 µM): 98.1% | viability, T/C (second compound 0.00316 µM, first compound 0.01 µM): 90.2% | viability, T/C [1]: 67.4% | viability, T/C [2]: 43.5% | viability, T/C (second compound 0.01 µM, first compound 0.000316 µM): 94.1% | viability, T/C (second compound 0.01 µM, first compound 0.001 µM): 92.6% | viability, T/C (second compound 0.01 µM, first compound 0.00316 µM): 95.7% | viability, T/C (second compound 0.01 µM, first compound 0.01 µM): 72.1% | viability, T/C [3]: 67% | viability, T/C [4]: 38.7% | viability, T/C (second compound 0.0316 µM, first compound 0.000316 µM): 80.1% | viability, T/C (second compound 0.0316 µM, first compound 0.001 µM): 75.7% | viability, T/C (second compound 0.0316 µM, first compound 0.00316 µM): 79.9% | viability, T/C (second compound 0.0316 µM, first compound 0.01 µM): 69% | viability, T/C [5]: 51.8% | viability, T/C [6]: 31.6% | viability, T/C (second compound 0.1 µM, first compound 0.000316 µM): 71.3% | viability, T/C (second compound 0.1 µM, first compound 0.001 µM): 65.7% | viability, T/C (second compound 0.1 µM, first compound 0.00316 µM): 65.1% | viability, T/C (second compound 0.1 µM, first compound 0.01 µM): 55.2% | viability, T/C [7]: 41.3% | viability, T/C [8]: 27.9% | viability, T/C (second compound 0.316 µM, first compound 0.000316 µM): 65.8% | viability, T/C (second compound 0.316 µM, first compound 0.001 µM): 64% | viability, T/C (second compound 0.316 µM, first compound 0.00316 µM): 61.3% | viability, T/C (second compound 0.316 µM, first compound 0.01 µM): 48.2% | viability, T/C [9]: 37.9% | viability, T/C [10]: 24.3% | viability, T/C (second compound 1 µM, first compound 0.000316 µM): 60.9% | viability, T/C (second compound 1 µM, first compound 0.001 µM): 55.1% | viability, T/C (second compound 1 µM, first compound 0.00316 µM): 51.9% | viability, T/C (second compound 1 µM, first compound 0.01 µM): 46.2% | viability, T/C [11]: 35.9% | viability, T/C [12]: 23.4%

CCCS(=O)(=O)Nc1ccc(F)c(C(=O)c2c[nH]c3ncc(-c4ccc(Cl)cc4)cc23)c1F + CC(Nc1ccc2c(c1)OCCn1cc(N3C(=O)OCC3C(F)F)nc1-2)C(N)=O
IC50 (second compound 0.00316 µM): 4510 nM | IC50 (second compound 0.01 µM): 3620 nM | IC50 (second compound 0.0316 µM): 2440 nM | IC50 (second compound 0.1 µM): 1870 nM | IC50 (second compound 0.316 µM): 1240 nM | IC50 (second compound 1 µM): 1090 nM | viability, T/C [1]: 98.5% | viability, T/C [2]: 94.9% | viability, T/C [13]: 100% | viability, T/C [14]: 86.9% | viability, T/C [15]: 59.2% | viability, T/C [16]: 29.9% | viability, T/C [3]: 98.3% | viability, T/C [4]: 102% | viability, T/C [17]: 93.3% | viability, T/C [18]: 80.3% | viability, T/C [19]: 52.8% | viability, T/C [20]: 29.5% | viability, T/C [5]: 80.5% | viability, T/C [6]: 81.6% | viability, T/C [21]: 79.9% | viability, T/C [22]: 66.3% | viability, T/C [23]: 45.5% | viability, T/C [24]: 26.6% | viability, T/C [7]: 80.8% | viability, T/C [8]: 71.4% | viability, T/C [25]: 68.6% | viability, T/C [26]: 61.4% | viability, T/C [27]: 41% | viability, T/C [28]: 23.9% | viability, T/C [9]: 72% | viability, T/C [10]: 68.4% | viability, T/C [29]: 61.7% | viability, T/C [30]: 54.7% | viability, T/C [31]: 36.7% | viability, T/C [32]: 21.7% | viability, T/C [11]: 65.4% | viability, T/C [12]: 63.4% | viability, T/C [33]: 59.8% | viability, T/C [34]: 51% | viability, T/C [35]: 36.9% | viability, T/C [36]: 21.4%

CNC(=O)c1ccc(N2C(=S)N(c3ccc(C#N)c(C(F)(F)F)c3)C(=O)C2(C)C)cc1F + CC(Nc1ccc2c(c1)OCCn1cc(N3C(=O)OCC3C(F)F)nc1-2)C(N)=O
IC50 (second compound 0.00316 µM): > 10000 nM | IC50 (second compound 0.01 µM): > 10000 nM | IC50 (second compound 0.0316 µM): > 10000 nM | IC50 (second compound 0.1 µM): > 10000 nM | IC50 (second compound 0.316 µM): > 10000 nM | IC50 (second compound 1 µM): > 10000 nM | viability, T/C [1]: 104% | viability, T/C [2]: 97.8% | viability, T/C [13]: 103% | viability, T/C [14]: 98% | viability, T/C [15]: 103% | viability, T/C [16]: 76.6% | viability, T/C [3]: 87.4% | viability, T/C [4]: 98% | viability, T/C [17]: 86.6% | viability, T/C [18]: 96% | viability, T/C [19]: 79.5% | viability, T/C [20]: 73% | viability, T/C [5]: 75.6% | viability, T/C [6]: 82.5% | viability, T/C [21]: 75% | viability, T/C [22]: 77.5% | viability, T/C [23]: 77.2% | viability, T/C [24]: 60.8% | viability, T/C [7]: 72.8% | viability, T/C [8]: 71.8% | viability, T/C [25]: 70.7% | viability, T/C [26]: 67.2% | viability, T/C [27]: 64% | viability, T/C [28]: 52.5% | viability, T/C [9]: 65.1% | viability, T/C [10]: 66.2% | viability, T/C [29]: 62.2% | viability, T/C [30]: 66.7% | viability, T/C [31]: 64.7% | viability, T/C [32]: 52.2% | viability, T/C [11]: 55.7% | viability, T/C [12]: 62.4% | viability, T/C [33]: 62.3% | viability, T/C [34]: 60.4% | viability, T/C [35]: 58.5% | viability, T/C [36]: 47.4%
